Experimental data: the supplement of paper PMC10307832

Columns and labels:
Assay in all cases: relative viability (nuclei count vs DMSO), 5 days (fraction); higher = more cells survive
Sorafenib + AZD7762 = compound: CNC(=O)c1cc(Oc2ccc(NC(=O)Nc3ccc(Cl)c(C(F)(F)F)c3)cc2)ccn1 [Sorafenib] + NC(=O)Nc1cc(-c2cccc(F)c2)sc1C(=O)N[C@H]1CCCNC1 [AZD7762] (partner 0.2 µM)
Summary of the method: (§1)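 Lung cancer cell lines were seeded in 1536-well plates and dosed by pin tool the next day, with either a single drug or a fixed anchor-drug dose combined with five library-drug doses (not always all listed) spaced in √10 steps. Five days later, one step fixed the cells and stained their nuclei (final 0.05% Triton X-100, 1% formaldehyde, 1 ug/ml Hoechst), and nuclei were counted on 4× images. Relative viability is the nuclei count in treated wells divided by the count in vehicle wells, and each value is the median of duplicate plates.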

Sorafenib + Tozasertib = compound: CNC(=O)c1cc(Oc2ccc(NC(=O)Nc3ccc(Cl)c(C(F)(F)F)c3)cc2)ccn1 [Sorafenib] + Cc1cc(Nc2cc(N3CCN(C)CC3)nc(Sc3ccc(NC(=O)C4CC4)cc3)n2)n[nH]1 [Tozasertib] (partner 0.1 µM)
Summary of the method: as §1

Sorafenib + Linsitinib = compound: CNC(=O)c1cc(Oc2ccc(NC(=O)Nc3ccc(Cl)c(C(F)(F)F)c3)cc2)ccn1 [Sorafenib] + C[C@]1(O)C[C@@H](c2nc(-c3ccc4ccc(-c5ccccc5)nc4c3)c3c(N)nccn32)C1 [Linsitinib] (partner 1 µM)
Summary of the method: as §1

Sorafenib + OSI-027 = compound: CNC(=O)c1cc(Oc2ccc(NC(=O)Nc3ccc(Cl)c(C(F)(F)F)c3)cc2)ccn1 [Sorafenib] + COc1cccc2cc(-c3nc([C@H]4CC[C@H](C(=O)O)CC4)n4ncnc(N)c34)[nH]c12 [OSI-027] (partner 0.5 µM)
Summary of the method: as §1

Sorafenib = compound: CNC(=O)c1cc(Oc2ccc(NC(=O)Nc3ccc(Cl)c(C(F)(F)F)c3)cc2)ccn1 [Sorafenib]
Summary of the method: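 For viability, nuclei in each treated well were divided by nuclei in vehicle wells and the median across plates was taken. Lung cancer cell lines in 1536-well plates were pinned with five library-drug doses (not always all listed) spaced by √10, cultured 5 days without medium change, and imaged at 4× after Hoechst staining, with plates passing only at control CV below 25% and at least one doubling.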

Cell Line | relative viability (Sorafenib + AZD7762; first compound 0.08 µM) | relative viability (Sorafenib + AZD7762; first compound 0.253 µM) | relative viability (Sorafenib + AZD7762; first compound 2.53 µM) | relative viability (Sorafenib + AZD7762; first compound 8 µM) | relative viability (Sorafenib + Tozasertib; first compound 0.08 µM) | relative viability (Sorafenib + Tozasertib; first compound 0.253 µM) | relative viability (Sorafenib + Tozasertib; first compound 2.53 µM) | relative viability (Sorafenib + Tozasertib; first compound 8 µM) | relative viability (Sorafenib + Linsitinib; first compound 0.08 µM) | relative viability (Sorafenib + Linsitinib; first compound 0.253 µM) | relative viability (Sorafenib + Linsitinib; first compound 2.53 µM) | relative viability (Sorafenib + Linsitinib; first compound 8 µM) | relative viability (Sorafenib + OSI-027; first compound 0.08 µM) | relative viability (Sorafenib + OSI-027; first compound 0.253 µM) | relative viability (Sorafenib + OSI-027; first compound 2.53 µM) | relative viability (Sorafenib + OSI-027; first compound 8 µM) | relative viability (Sorafenib; 0.08 µM) | relative viability (Sorafenib; 0.253 µM) | relative viability (Sorafenib; 2.53 µM) | relative viability (Sorafenib; 8 µM)
HCC-366 | 0.306 | 0.283 | 0.181 | 0.0837 | 0.109 | 0.083 | 0.054 | 0.0297 | 0.66 | 0.628 | 0.732 | 0.463 | 0.951 | 0.937 | 0.866 | 0.327 | 1 | 1.02 | 1 | 0.999
HCC-827 | 0.211 | 0.207 | 0.215 | 0.161 | 0.423 | 0.471 | 0.421 | 0.45 | 0.934 | 0.88 | 0.986 | 0.851 | 0.956 | 0.715 | 0.723 | 0.723 | 1.06 | 0.954 | 1.02 | 0.956
HOP-62 | – | 0.567 | 0.405 | 0.207 | 0.431 | 0.331 | 0.338 | 0.155 | 1.14 | 0.839 | 0.781 | 0.49 | 0.848 | 0.631 | 0.759 | 0.657 | 0.986 | 0.858 | 0.764 | 0.589
IA-LM | – | – | – | – | – | – | – | – | 0.456 | 0.281 | 0.373 | 0.436 | – | – | – | – | – | 0.646 | 0.563 | 0.514
LC-2-ad | 0.942 | 0.86 | 0.967 | 0.769 | 0.405 | 0.478 | 0.478 | 0.462 | 0.935 | 0.798 | 0.673 | 0.659 | 0.889 | – | 0.9 | 0.573 | 1.03 | 0.834 | 0.939 | 0.762
NCI-H520 | – | – | – | – | 0.517 | 0.436 | 0.432 | 0.331 | 1.01 | 0.905 | 0.919 | 0.307 | 0.352 | 0.254 | 0.246 | 0.246 | 0.93 | 0.823 | – | 0.75
NCI-H661 | – | – | – | – | 0.35 | 0.378 | 0.333 | – | 0.816 | 0.57 | 0.55 | 0.417 | 0.759 | 0.73 | 0.655 | 0.483 | – | 1.02 | 0.97 | 0.713
NCI-H1563 | – | – | – | – | – | – | – | – | 1.08 | 1.41 | 1.21 | 1.16 | 0.792 | 0.766 | 0.687 | 0.7 | 1.07 | 0.958 | 1.02 | 0.779
NCI-H1650 | – | – | – | – | 0.397 | 0.39 | 0.361 | 0.257 | – | – | – | – | 0.83 | 0.599 | 0.908 | 0.31 | 1.17 | 0.909 | 1.31 | 0.534
NCI-H1703 | 0.125 | 0.133 | 0.134 | 0.106 | – | – | – | – | 0.642 | 0.336 | 0.142 | 0.179 | – | – | – | – | 0.859 | 0.46 | 0.271 | 0.249
NCI-H1792 | 0.674 | 0.483 | 0.442 | 0.425 | – | – | – | – | 0.569 | 0.511 | 0.478 | 0.546 | 0.811 | 0.697 | 0.695 | 0.394 | 0.877 | 0.843 | 0.892 | 0.773
NCI-H2009 | – | – | – | – | 0.775 | 0.666 | 0.723 | 0.498 | 1.15 | 1.11 | 1.05 | 1.11 | 0.629 | 0.355 | 0.601 | 0.303 | 0.951 | 0.786 | 0.924 | 0.731
NCI-H2023 | – | – | – | – | 0.282 | 0.278 | 0.229 | 0.142 | 0.733 | 0.735 | 0.669 | 0.497 | 0.51 | 0.338 | 0.387 | 0.19 | 1.15 | 0.89 | 1.07 | 0.425
NCI-H2170 | – | 0.816 | 0.824 | 0.819 | 0.767 | 0.714 | 0.726 | 0.694 | – | – | – | – | 0.72 | 0.681 | 0.647 | 0.51 | 1 | 0.875 | 0.943 | 0.782
NCI-H2228 | – | – | – | – | 0.273 | 0.283 | 0.18 | 0.182 | 0.682 | 0.551 | 0.669 | 0.596 | 0.626 | 0.607 | – | 0.365 | 1.17 | 0.736 | 0.941 | 0.714
NCI-H2342 | 0.589 | 0.409 | 0.554 | 0.353 | 0.568 | 0.488 | 0.377 | 0.366 | – | – | – | – | 0.676 | 0.522 | 0.542 | 0.482 | – | 0.728 | – | 0.656
SK-LU-1 | – | – | – | – | 0.346 | 0.347 | 0.325 | 0.211 | 1.03 | – | 0.932 | 0.345 | 0.41 | 0.283 | 0.345 | 0.227 | 1.15 | 0.876 | 0.92 | 0.655
SK-MES-1 | – | – | – | – | 0.823 | 0.833 | 0.714 | 0.439 | 1.1 | 1.08 | 1 | 1.03 | 0.604 | 0.548 | 0.5 | 0.454 | 1.04 | 0.936 | 0.997 | 0.752
SW 1573 | – | – | – | – | 0.194 | 0.205 | 0.174 | 0.119 | 0.805 | 0.786 | 0.79 | 0.378 | 0.79 | 0.517 | 0.553 | 0.21 | 1.03 | 0.98 | 0.877 | 0.456
UMC-11 | – | – | – | – | 0.209 | 0.195 | 0.202 | 0.184 | 0.991 | 0.989 | 0.945 | 0.687 | 0.46 | 0.386 | 0.454 | 0.266 | 1.03 | 0.907 | 0.917 | 0.648
